We go through 1 molecule from patent US20130123227A1, “NOVEL ORGANO-PALLADIUM COMPLEXES” (priority 2010, published 2013).

SMILES strings stand for the structures.

This series can be described thus: Seizure incidence in mice. The series is classed as in vivo. From the text:
The original Pd-lipoic acid complex provides a structure in which the palladium is safely sequestered, and which is also active in the lipoic acid binding site in mitochondrial complex I, thereby coupling to enzymatic charge transfer. […] To eliminate seizure activity, the G10 stage of the synthetic complex was further investigated and combined with various substances, until there were no seizures. This was ultimately achieved by complexing with zinc-amino acid complexes.

Regarding `C[C@@H](O)[C@H](N)C(=O)O.C[C@@H](O)[C@H](N)C(=O)O.[Zn]` [Zn-bis(threonine)], the seizures result was “modulates and inhibits the seizure potentials”.
